The values that follow come from US20250205189A1, “DIETARY BUTYRATE FOR TREATING OR PREVENTING AN ALLERGIC DISORDER” (SOCIETE DES PRODUITS NESTLE S.A., priority 2018, published 2025).

The test system of experiment [1] is female BALB/c mice. The experiment in a line: Cumulative clinical score after oral OVA challenge in mice with pre-existing milk (BLG) allergy. It counts as in vivo. The settings on record: 600 μg butyrate per mL infant formula ad libitum; 12 oral OVA challenges; compared to Allergic group 1; FIG. 3. From the text:
An allergy to milk was induced in female BALB/c mice aged eight weeks by sensitization via epicutaneous application of the milk protein β-lactoglobulin (BLG) (“Allergic group”). At this stage all three “Allergic groups” ([…], […] and Allergic group 3) were subjected to the same sensitization via epicutaneous application of the milk protein β-lactoglobulin (BLG) treatment. The non-allergic negative control group received phosphate buffered saline (PBS) only (“Control group”). Three patches were applied in total, each separated by a week without patch in between. Six days following the final skin patch, mice were orally challenged with BLG following a conventional procedure known to those skilled in the art. Serum was processed for ELISA and BLG-specific Immunoglobulin E (IgE) and BLG-specific Immunoglobulin G1 (IgG1) were determined (FIGS. 1 and 2 respectively).
Following the induction of milk allergy, “Control group” and “Allergic group 1” received infant formula for nutritional management of cow's milk allergy (the extensively hydrolyzed infant formula available commercially under the Trademark Althéra® was used in this example) reconstituted in the drinking water for a three-week period. […]

For experiment [2], the system named is GATA-3. The following applies: cited from earlier work.
Experiment [3] concerns mast cell protease-1 (MCPT-1). The experiment in a line: Serum ELISA of mast cell protease-1 after oral OVA challenge. It counts as in vivo, mice. The settings on record: 600 μg butyrate per mL infant formula, FIG. 6.
Experiment [4] relates to OVA-specific IgE, OVA-specific IgG1. The experiment is described as follows: Serum ELISA of OVA-specific IgE and IgG1 after oral OVA challenge. It counts as in vivo, mice. The following applies: 600 μg butyrate per mL infant formula, compared across the three Allergic groups. (An ELISA detects its analyte on a solid surface through an enzyme-linked reagent.)

`CCCC(=O)[O-].[Na+]` [sodium butyrate]: in experiment [1], the “Allergic symptoms (cumulative clinical score)” value is reported as “reduction of allergic symptoms”. The “GATA-3 or FoxP3 expression” value in experiment [2] (0.1 mM, CD4+ T cells under Th2 polarizing conditions (Furusawa 2013)) is “insufficient to influence GATA-3 or FoxP3 expression”. Also, the Gata3 expression result in experiment [2] (1 mM in vitro, Th2 polarized CD4+ T cells (Kespohl 2017)) was “sufficient to ameliorate Gata3 expression”. Besides, the “Mast cell protease-1 (MCPT-1)” value in experiment [3] is reported as “reduction in mast cell protease-1”. Also, the “OVA-specific IgE level” value in experiment [4] (FIG. 4) is on record as “similar”. In addition, in experiment [4] (FIG. 5), the “OVA-specific IgG1 level” value is listed as “similar”.
